Experimental data reported in US11571423B2, “Small molecule modulators of human sting” (Curadev Pharma Limited, priority 2017, dated 2023).

Tests used:
hSTING(R232) = hSTING(R232) (Homo sapiens, UniProt Q86WV6, H232R); assay: Luciferase reporter assay in HEK293T-hSTING-Luciferase cells, R232 (wild type) human STING; assay type: cell-based; conditions: 20 hr stimulation, read-out: R232 human activity (EC50 range)
Method in brief: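 Clonal HEK293T cells stably expressing STING from a pUNO-1 plasmid plus an ISRE/ISG54-driven secreted luciferase reporter; 5×10^5 cells stimulated with compound for 20 hr. Supernatant luciferase read by luminescence, giving fold-induction over baseline and EC50.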

[1] = target: cynomolgus monkey STING protein (Macaca fascicularis, UniProt A0A2R3XZA6); assay: Luciferase reporter assay, cynomolgus monkey STING overexpressed in HEK293T cells; assay type: cell-based; conditions: cynomolgus monkey STING overexpressed in HEK293T cells; read-out: Cynomolgus monkey STING activity (EC50 range)
Chain of cynomolgus monkey STING protein (A0A2R3XZA6 entry or part of it): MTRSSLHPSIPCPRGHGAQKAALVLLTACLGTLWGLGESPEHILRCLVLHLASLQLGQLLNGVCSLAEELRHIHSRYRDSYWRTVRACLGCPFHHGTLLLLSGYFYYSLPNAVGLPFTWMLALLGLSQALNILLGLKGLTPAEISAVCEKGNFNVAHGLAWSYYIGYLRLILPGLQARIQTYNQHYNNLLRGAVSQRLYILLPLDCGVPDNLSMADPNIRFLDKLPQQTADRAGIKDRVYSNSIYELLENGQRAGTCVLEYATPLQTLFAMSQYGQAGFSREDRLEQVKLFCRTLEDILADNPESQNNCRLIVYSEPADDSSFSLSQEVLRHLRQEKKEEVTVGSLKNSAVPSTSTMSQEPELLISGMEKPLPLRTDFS
Experimental: 5×10^5 clonally selected HEK293T-hSTING-Luciferase cells were seeded in 384-well plates in growth medium and stimulated with novel compounds. After 20 hr of stimulation supernatant were removed and secretary reporter gene activity were measured using the Quanti-Luc detection system (Invivogen) on a Spectramax i3X luminometer.
In the tables below, EC50 value ranges for exemplary compounds are given.
Selected compounds were further tested against cynomolgus monkey STING protein overexpressed in HEK293T cells.

Chain of hSTING(R232) (Q86WV6 whole entry H232R): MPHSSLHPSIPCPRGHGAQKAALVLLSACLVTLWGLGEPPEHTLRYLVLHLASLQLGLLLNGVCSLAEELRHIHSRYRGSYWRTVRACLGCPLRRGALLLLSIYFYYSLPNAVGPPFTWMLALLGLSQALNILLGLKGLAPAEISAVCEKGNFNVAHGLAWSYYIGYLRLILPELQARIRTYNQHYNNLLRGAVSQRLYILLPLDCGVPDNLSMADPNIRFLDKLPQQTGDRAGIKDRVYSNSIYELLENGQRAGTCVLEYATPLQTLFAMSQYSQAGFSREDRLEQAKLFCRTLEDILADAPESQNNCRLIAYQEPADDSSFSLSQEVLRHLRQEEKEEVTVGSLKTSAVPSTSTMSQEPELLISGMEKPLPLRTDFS

## COc1ccc(F)c(F)c1CN1C(=O)N(C)C(C)c2ccc(C(=O)NCc3c(F)cc(F)cc3F)cc21 (centres unmarked) [Example 178, 1-(2,3-difluoro-6-methoxybenzyl)-3,4-dimethyl-2-oxo-N-(2,4,6-trifluorobenzyl)-1,2,3,4-tetrahydroquinazoline-7-carboxamide]
hSTING(R232)
  EC50: < 1 µM
[1]
  EC50: < 1 µM

## C[C@H]1c2ccc(C(=O)NCc3c(F)cc(F)cc3F)cc2N(Cc2cc(OCCO)cc(F)c2F)C(=O)N1C [Example 282, (S)-1-(2,3-difluoro-5-(2-hydroxyethoxy)benzyl)-3,4-dimethyl-2-oxo-N-(2,4,6-trifluorobenzyl)-1,2,3,4-tetrahydroquinazoline-7-carboxamide]
hSTING(R232)
  EC50: < 1 µM
[1]
  EC50: 1 to 10 µM

## C[C@H]1c2ccc(C(=O)NCc3c(F)cc(F)cc3F)cc2N(Cc2c(F)cc(F)cc2OP(=O)(O)O)C(=O)N1C [Example 105, (S)-2-((3,4-dimethyl-2-oxo-7-((2,4,6-trifluorobenzyl)carbamoyl)-3,4-dihydroquinazolin-1(2H)-yl)methyl)-3,5-difluorophenyl dihydrogen phosphate]
hSTING(R232)
  EC50: < 1 µM
[1]
  EC50: < 1 µM

## C[C@H]1c2ccc(C(=O)NCc3c(F)cc(F)cc3F)cc2N(Cc2c(F)cc(OP(=O)(O)O)cc2F)C(=O)N1C [Example 84, (S)-4-((3,4-Dimethyl-2-oxo-7-((2,4,6-trifluorobenzyl)carbamoyl)-3,4-dihydroquinazolin-1(2H)-yl)methyl)-3,5-difluorophenyl dihydrogen phosphate]
hSTING(R232)
  EC50: < 1 µM
[1]
  EC50: < 1 µM

## C[C@H]1c2ccc(C(=O)NCc3c(F)cc(F)cc3F)cc2N(Cc2c(F)ccc(OCCOP(=O)(O)O)c2Cl)C(=O)N1C [Example 95, (S)-2-(2-chloro-3-((3,4-dimethyl-2-oxo-7-((2,4,6-trifluorobenzyl)carbamoyl)-3,4-dihydroquinazolin-1(2H)-yl)methyl)-4-fluorophenoxy)ethyl dihydrogen phosphate]
hSTING(R232)
  EC50: < 1 µM
[1]
  EC50: > 10 µM

## C[C@H]1c2ccc(C(=O)NCc3c(F)cc(F)cc3F)cc2N(Cc2c(F)cc(OCCCOP(=O)(O)O)cc2F)C(=O)N1C [Example 82, (S)-3-(4-((3,4-dimethyl-2-oxo-7-((2,4,6-trifluorobenzyl)carbamoyl)-3,4-dihydroquinazolin-1(2H)-yl)methyl)-3,5-difluorophenoxy)propyl dihydrogen phosphate]
hSTING(R232)
  EC50: < 1 µM
[1]
  EC50: < 1 µM

## C[C@H]1c2ccc(C(=O)NCc3c(F)cc(F)cc3F)cc2N(Cc2c(F)ccc(OCOP(=O)(O)O)c2Cl)C(=O)N1C [Example 90, (S)-(2-Chloro-3-((3,4-dimethyl-2-oxo-7-((2,4,6-trifluorobenzyl)carbamoyl)-3,4-dihydroquinazolin-1(2H)-yl)methyl)-4-fluorophenoxy)methyl dihydrogen phosphate]
hSTING(R232)
  EC50: < 1 µM
[1]
  EC50: < 1 µM

## COc1cc(F)c(CN2C(=O)N(C)C(C)c3ccc(C(=O)NCc4c(F)cc(F)cc4F)cc32)c(F)c1 (centres unmarked) [Example 165, 1-(2,6-difluoro-4-methoxybenzyl)-3,4-dimethyl-2-oxo-N-(2,4,6-trifluorobenzyl)-1,2,3,4-tetrahydroquinazoline-7-carboxamide]
hSTING(R232)
  EC50: < 1 µM
[1]
  EC50: < 1 µM

## C[C@H]1c2ccc(C(=O)NCc3c(F)cc(OP(=O)(O)O)cc3F)cc2N(Cc2c(F)cccc2Cl)C(=O)N1C [Example 101, (S)-4-((1-(2-chloro-6-fluorobenzyl)-3,4-dimethyl-2-oxo-1,2,3,4-tetrahydroqinazoline-7-carboxamido)methyl)-3,5-difluorophenyl dihydrogen phosphate]
hSTING(R232)
  EC50: 1 to 10 µM
[1]
  EC50: 1 to 10 µM

## C[C@H]1c2ccc(C(=O)NCc3c(F)cc(F)cc3F)cc2N(Cc2c(F)cc(OCC(O)CO)cc2F)C(=O)N1C (stereo partly drawn) [Example 145, (4S)-1-(4-(2,3-Dihydroxypropoxy)-2,6-difluorobenzyl)-3,4-dimethyl-2-oxo-N-(2,4,6-trifluorobenzyl)-1,2,3,4-tetrahydroquinazoline-7-carboxamide]
hSTING(R232)
  EC50: < 1 µM
[1]
  EC50: < 1 µM
